Measured values from the NIST ThermoML archive (doi:10.1021/je800848u).
Numbers after ± are expanded uncertainties.

How the values were obtained:
[1] = Crystal; visual observation
[2] = Molar enthalpy of transition or fusion; conditions: Crystal; DSC

Normal melting temperature [1] | Molar enthalpy of transition or fusion [2] | Compound
141.00 ± 0.4 °C | 6.58 ± 0.189 kcal/mol | O=C(O)c1ccccc1Cl [2-chlorobenzoic acid]
127.00 ± 0.4 °C | 5.53 ± 0.163 kcal/mol | NC(=O)c1ccccc1 [benzamide]
